Values of other authors as cited in patent US20240180903A1, “INJECTABLE PHARMACEUTICAL COMPOSITION, PREPARATION METHOD THEREFOR AND USE THEREOF” (ZHEJIANG CUIZE PHARMACEUTICAL TECHNOLOGY CO., LTD., priority 2022, published 2024).

Experiments:
[1] = tested on: HIV; settings: read-out: IC50 against HIV
[2] = tested on: HIV RNA in plasma; settings: oral 5 mg/d or 30 mg/d, 10 d after a single dose

SMILES: C[C@H]1CO[C@@H]2Cn3cc(C(=O)NCc4ccc(F)cc4F)c(=O)c(O)c3C(=O)N12 [Cabotegravir]
- IC50 [1]: 0.22 nM
- HIV RNA in plasma [2]: 2.2-2.3 copies/mL
